Structures can show the parent of a compound that is named as a salt.
Molecular target: T1, human kinase Mps-1 (Homo sapiens, UniProt P33981)
T1 construct: N-terminally GST-tagged human full length recombinant Mps-1 kinase; GST (N); purchased Invitrogen, Karslruhe, Germany PV4071
T1 sequence (P33981 1-857): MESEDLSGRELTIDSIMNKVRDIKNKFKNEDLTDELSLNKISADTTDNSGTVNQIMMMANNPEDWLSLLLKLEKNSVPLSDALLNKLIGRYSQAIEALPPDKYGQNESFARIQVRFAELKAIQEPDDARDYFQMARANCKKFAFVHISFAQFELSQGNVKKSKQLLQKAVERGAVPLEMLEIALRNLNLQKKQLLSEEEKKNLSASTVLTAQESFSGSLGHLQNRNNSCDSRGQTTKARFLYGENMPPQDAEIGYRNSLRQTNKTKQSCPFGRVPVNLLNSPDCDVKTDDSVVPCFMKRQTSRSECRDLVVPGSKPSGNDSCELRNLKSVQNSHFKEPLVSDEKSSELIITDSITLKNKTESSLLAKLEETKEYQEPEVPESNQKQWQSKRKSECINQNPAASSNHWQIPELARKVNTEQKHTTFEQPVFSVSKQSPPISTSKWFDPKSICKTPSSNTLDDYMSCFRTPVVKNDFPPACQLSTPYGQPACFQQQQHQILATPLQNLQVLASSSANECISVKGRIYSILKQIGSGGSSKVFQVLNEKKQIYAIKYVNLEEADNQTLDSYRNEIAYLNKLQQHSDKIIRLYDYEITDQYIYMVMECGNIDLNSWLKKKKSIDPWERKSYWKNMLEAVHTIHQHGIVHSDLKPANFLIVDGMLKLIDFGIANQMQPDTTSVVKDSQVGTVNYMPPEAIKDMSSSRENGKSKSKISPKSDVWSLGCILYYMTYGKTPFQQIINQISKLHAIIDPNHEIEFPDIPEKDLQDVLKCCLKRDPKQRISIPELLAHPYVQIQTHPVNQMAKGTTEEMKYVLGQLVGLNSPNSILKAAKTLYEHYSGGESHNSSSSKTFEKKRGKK
Assay: Mps-1 kinase assay (TR-FRET)
Format: biochemical
Settings: Mps-1 TR-FRET kinase assay; avg; read-out: Mps1 avg (IC50 [mol/l])
Procedure, shortened: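 GST-tagged full-length recombinant human Mps-1 (~0.5 nM) pre-incubated 15 min with compound, then reacted 60 min at 22 °C with 10 μM ATP and 1 μM biotinylated peptide in Hepes pH 7.7 buffer. EDTA-stopped; TR-FRET (Eu anti-phospho-Ser/Thr to SA-XLent) 665/620 nm ratio normalised to no-inhibitor and no-enzyme controls.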

| SMILES | IC50 [µM] |
| --- | --- |
| Cc1nsc(Nc2cnc(C(F)(F)F)cn2)c1C(=O)Nc1ccc(OC2CCN(CC(F)(F)F)CC2)c(F)c1 [Example 163, N-(3-fluoro-4-{[1-(2,2,2-trifluoroethyl)piperidin-4-yl]oxy}phenyl)-3-methyl-5-{[5-(trifluoromethyl)pyrazin-2-yl]amino}-1,2-thiazole-4-carboxamide] | > 20 |
| Cc1nsc(Nc2cnc(C(F)(F)F)cn2)c1C(=O)Nc1ccc(OC2CCN(CC(F)F)CC2)c(F)c1 [Example 164, N-(4-{[1-(2,2-difluoroethyl)piperidin-4-yl]oxy}-3-fluorophenyl)-3-methyl-5-{[5-(trifluoromethyl)pyrazin-2-yl]amino}-1,2-thiazole-4-carboxamide] | > 20 |
| Cc1nsc(Nc2cnc(C(F)(F)F)cn2)c1C(=O)Nc1ccc(C(=O)NC2CCN(CC(F)(F)F)CC2)cc1 [Example 165, 3-methyl-N-(4-{[1-(2,2,2-trifluoroethyl)piperidin-4-yl]carbamoyl}phenyl)-5-{[5-(trifluoromethyl)pyrazin-2-yl]amino}-1,2-thiazole-4-carboxamide] | > 20 |
| Cc1nsc(Nc2cncc(C(F)(F)F)n2)c1C(=O)Nc1ccc(OCC2CCCN(C(=O)OC(C)(C)C)C2)nc1 (stereo not shown) [Example 166, tert-butyl 3-{[(5-{[(3-methyl-5-{[6-(trifluoromethyl)pyrazin-2-yl]amino}-1,2-thiazol-4-yl)carbonyl]amino}pyridin-2-yl)oxy]methyl}piperidine-1-carboxylate] | > 20 |
| Cc1nsc(Nc2cncc(C(F)(F)F)n2)c1C(=O)Nc1ccc(C(=O)NC2CCN(CC(F)(F)F)CC2)cc1 [Example 167, 3-methyl-N-(4-{[1-(2,2,2-trifluoroethyl)piperidin-4-yl]carbamoyl}phenyl)-5-{[6-(trifluoromethyl)pyrazin-2-yl]amino}-1,2-thiazole-4-carboxamide] | > 20 |
| Cc1nsc(Nc2cncc(C(F)(F)F)n2)c1C(=O)Nc1ccc(F)c(OC2CCN(C(=O)OC(C)(C)C)CC2)c1 [Example 168, tert-butyl 4-(2-fluoro-5-{[(3-methyl-5-{[6-(trifluoromethyl)pyrazin-2-yl]amino}-1,2-thiazol-4-yl)carbonyl]amino}phenoxy)piperidine-1-carboxylate] | > 20 |
| Cc1nsc(Nc2cnc3ccccc3n2)c1C(=O)Nc1ccc(N2CCOCC2)nc1 [Example 169, 3-methyl-N-[6-(morpholin-4-yl)pyridin-3-yl]-5-(quinoxalin-2-ylamino)-1,2-thiazole-4-carboxamide] | > 20 |
| Cc1nsc(Nc2ccc(C#N)cn2)c1C(=O)Nc1ccc(N[C@@H](C)C(=O)OC(C)(C)C)nc1 [Example 170, tert-butyl N-{5-[({5-[(5-cyanopyridin-2-yl)amino]-3-methyl-1,2-thiazol-4-yl}carbonyl)amino]pyridin-2-yl}alaninate] | > 20 |
| Cc1nsc(Nc2ccc(C#N)cn2)c1C(=O)Nc1ccc(NC2CCCN(C(=O)OC(C)(C)C)C2)nc1 (stereo not shown) [Example 171, tert-butyt 3-({5-[({5-[(5-cyanopyridin-2-yl)amino]-3-methyl-1,2-thiazol-4-yl}carbonyl)amino]pyridin-2-yl}amino)piperidine-1-carboxylate] | > 20 |
| Cc1nsc(Nc2cnc3ccccc3n2)c1C(=O)Nc1ccc(NC2CC2)nc1 [Example 172, N-[6-(cyclopropylamino)pyridin-3-yl]-3-methyl-5-(quinoxalin-2-ylamino)-1,2-thiazole-4-carboxamide] | > 20 |
| COc1ccc(NC(=O)c2c(C)nsc2Nc2ccc(C#N)cn2)c(N2CCOCC2)n1 [Example 173, 5-[(5-cyanopyridin-2-yl)amino]-N-[6-methoxy-2-(morpholin-4-yl)pyridin-3-yl]-3-methyl-1,2-thiazole-4-carboxamide] | > 20 |
| Cc1nsc(Nc2cnc(C(F)(F)F)cn2)c1C(=O)Nc1ccc(F)c(OCC2CCCN(CC(F)F)C2)c1 (stereo not shown) [Example 335, N-(3-{[1-(2,2-difluoroethyl)piperidin-3-yl]methoxy}-4-fluorophenyl)-3-methyl-5-{[5-(trifluoromethyl)pyrazin-2-yl]amino}-1,2-thiazole-4-carboxamide] | ≥ 20 |
| Cc1nsc(Nc2cnc(C(F)(F)F)cn2)c1C(=O)Nc1ccc(OC2CCN(CCC(F)(F)F)CC2)nc1 [Example 426, 3-Methyl-5-{[5-(trifluoromethyl)pyrazin-2-yl]amino}-N-(6-{[1-(3,3,3-trifluoro-propyl)piperidin-4-yl]oxy}pyridin-3-yl)-1,2-thiazole-4-carboxamide, Salt with Hydrochloric Acid] | ≥ 20 |

Source: patent US20170334899A1, “AMINO-SUBSTITUTED ISOTHIAZOLES” (Bayer Pharma Aktiengesellschaft, priority 2014, published 2017)
